Measured values taken from patent US20060211705A1, “'N-(2-chloro-6-methylphenyl)-2-[[6-[4-(2-hydroxyethyl)-1-piperazinyl]-2-methyl-4-pyrimidinyl]amino]-5-thiazolecarboxamides metabolites” (priority 2005, published 2006).

What was measured:
[1] = Metabolite profile of [14C] compound (I) in monkey hepatocyte incubations; format: in vitro ADME, cynomolgus monkey; details: (Ia) 20 μM, 3 h, 37° C., ~2 million cells/mL; relative distribution in radiochromatographic profile
Protocol: (§1) The compound of formula (I) was used as the [^14C] compound (Ia) (30.4 μCi/mg, radiochemical purity 99.2%), as the monohydrate of the free base. The C-14 label was on the carbon in the 2-position of the thiazole ring.
(§2) Freshly isolated rat hepatocyte preparations were prepared from one male Sprague-Dawley rat. Rat Hepatocytes were prepared according to a standard procedure (Seglen, PO. Preparation of isolated rat liver cells. Methods Cell Biol., 1976, 13: 29-83). Cryopreserved cynomolgus monkey hepatocytes (male, pooled, n=6) and human hepatocytes (3 individual preparation) were purchased from In Vitro Technologies (Baltimore, Md.). Microsomes from male SD Rats (pooled, n=200, 20 mg/mL) and male cynomolgus monkeys (pooled, n=8, 20 mg/mL) were obtained from Xenotech LLC, Kansas City, Kans. Human liver microsomes (male, pooled, n=38) were from BD-Gentest, Woburn, Mass.
(§3) A 6 mM stock solution of the compound of formula (Ia) (the [^14C] of the compound of formula (I) was prepared at by dissolving 3.7 mg of the compound of formula (Ia) into 1:1 acetonitrile/DMSO. The 2 mM stock solution of the compound of formula (Ia) was obtained by diluting an aliquot of the 6 mM stock solution 3-fold with acetonitrile.
(§4) Human (3 vials from 3 individuals) and monkey cryopreserved hepatocytes were thawed according to the procedure provided by In Vitro Technologies. Briefly, the caps of the cryovials were loosened to release any trapped liquid nitrogen and kept on ice for 2 min. The caps were tightened and the vials were immersed in a 37° C. water bath for 75-90 sec with gentle shaking. The thawed samples (3 cryovials/[…] for each 50 mL tube) were transferred into 25 mL pre-warmed Krebs-Henseleit buffer in a 50 mL tube and gently inverted. The suspensions were evenly divided into 2 tubes and diluted to 40 mL with pre-warmed Krebs-Henseleit buffer. The tubes were centrifuged in an Eppendorf 5810R centrifuge (Hamburg, Germany) at 200 rpm at 4° C. for 10 min. The supernatant was discarded and the pellet gently suspended in 2 mL of Krebs-Henseleit buffer. All the tubes were combined into one tube, rinsing the empty tubes with 1 mL Krebs-Henseleit buffer. The cells were counted, checked for viability and diluted accordingly with modified Krebs-Henseleit buffer to give a final concentration of 2 million viable cells/mL.
(§5) Viability of the hepatocytes was checked using a Trypan Blue exclusion assay and a hemocytometer. A mixture of 0.1 mL of the hepatocyte suspension and 0.1 mL of trypan blue solution were diluted with 0.8 mL of Krebs-Henseleit buffer. The solution was gently mixed and plated onto a Levy hemocytometer (Hausser Scientific) and the viable cells (unstained) were counted under a light microscope. The viability of the hepatocytes ranged from 77% to 90% at the beginning of the incubations.
(§6) Hepatocyte incubations were conducted at 37° C. for 3 h in a NAPCO CO2 6000 incubator (VWR Scientific Products) under a 5% CO2 atmosphere using an orbital shaker at 90 rpm. For each incubation, the final concentration of compound (Ia) was 20 μM and the hepatocyte concentrations were ˜2 million cells/mL. A control incubation, in the absence of hepatocytes, was also performed for 3 h. The incubations were stopped by adding one volume of ice-cold acetonitrile. Each 0.5 mL incubation contained 0.1 M potassium phosphate buffer (pH 7.4), 2.5 mM MgCl2, 2 mg/mL microsomal protein, and 2.0 mM NADPH. The final substrate concentration was 20 μM. The mixtures were incubated in a shaking water bath at 37° C. for 15 min. Control incubations in the absence of microsomes or NADPH were performed for each species. The reactions were stopped with the addition of 1 mL of ice-cold acetonitrile.
(§7) HPLC was performed on a Waters Alliance™ system equipped with Waters 2695 pumps and a photodiode array detector (Waters 2996). A Phenomenex Synergy Polar-RP® column (4.6×250 mm, 5 micron) was used for metabolite separation. […]

[2] = Metabolite profile of [14C] compound (I) in human hepatocyte incubations; format: in vitro ADME; details: (Ia) 20 μM, 3 h, 37° C., ~2 million cells/mL; relative distribution in radiochromatographic profile
Protocol: as §1, §2, §3, §4, §5, §6, §7

[3] = Metabolite profile of [14C] compound (I) in rat liver microsome incubations; format: in vitro ADME, SD rat; details: (Ia) 20 μM, 15 min, 37° C., 2 mg/mL microsomal protein, 2.0 mM NADPH
Protocol: as §1, §2, §3, §6
(§8) HPLC was performed on a Waters Alliance™ system equipped with Waters 2695 pumps and a photodiode array detector (Waters 2996). A Phenomenex Synergy Polar-RP® column (4.6×250 mm, 5 micron) was used for metabolite separation. All HPLC analyses were performed at 1 mL/min flow rate at room temperature. Two HPLC mobile phase and gradient systems were used because all metabolites could not be completely separated on either of the individual HPLC systems. The first system consisted of (A) water with 0.1% formic acid and (B) acetonitrile with 0.1% formic acid as mobile phase. The linear gradient was as follows: 0 min, 20% B; 1 min, 20% B; 41 min, 35% B; 42 min, 90% B; 44 min, 90% B. The column was re-equilibrated at 20% B for 6 min before the next injection. The second HPLC system was used to separate certain co-eluting metabolites that could not be separated by the first system. The mobile phase consisted of (A) water with 0.1% triflouroacetic acid (TFA) and (B) acetonitrile with 0.1% TFA. The gradient was as follows: 0 min, 20% B; 1 min, 20% B; 51 min, 35% B; 52 min, 90% B; 54 min 90% B. The column was equilibrated at 20% B for 6 min prior to the next injection.
(§9) On-line radioactivity detection (RAD) was conducted using an INUS β-RAM detector (Model 3, INUS, Tampa, Fla.). The β-RAM was operated with a 500 μL liquid flow cell in the homogeneous liquid scintillation counting mode. A flow rate of 2 mL/min of scintillation cocktail was mixed with the HPLC effluent. The effluent from HPLC was split to the β-RAM detector (90%) and the mass spectrometer (10%) by adjusting the length and diameter of post column tubings. The β-RAM detector provided integrated output detailing the percentage and amount of radioactivity under each radioactive peak.
(§10) Hepatocyte and liver microsomal incubations were quenched with acetonitrile and were vortex-mixed for 3 min. […]

[4] = Metabolite profile of [14C] compound (I) in monkey liver microsome incubations; format: in vitro ADME, cynomolgus monkey; details: (Ia) 20 μM, 15 min, 37° C., 2 mg/mL microsomal protein, 2.0 mM NADPH
Protocol: as §1, §2, §3, §6, §8, §9, §10

[5] = Metabolite profile of [14C] compound (I) in human liver microsome incubations; format: in vitro ADME; details: (Ia) 20 μM, 15 min, 37° C., 2 mg/mL microsomal protein, 2.0 mM NADPH
Protocol: as §1, §2, §3, §6, §8, §9, §10

## Cc1nc(Nc2ncc(C(=O)Nc3c(C)cccc3Cl)s2)cc(N2CCNCC2)n1 [M4 (II)]
[1]
  % of Radioactivity in Hepatocytes, Monkey: 3.7%
[2]
  % of Radioactivity in Hepatocytes, Human: 1.0%
[3]
  % of Radioactivity in Microsomes, Rat: 1.8%
[4]
  % of Radioactivity in Microsomes, Monkey: 5.8%
[5]
  % of Radioactivity in Microsomes, Human: 4.0%

## Cc1nc(Nc2ncc(C(=O)Nc3c(C)cccc3Cl)s2)cc(N2CC[N+]([O-])(CCO)CC2)n1 [M5 (III)]
[1]
  % of Radioactivity in Hepatocytes, Monkey: 3.2%
[2]
  % of Radioactivity in Hepatocytes, Human: 2.3%
[3]
  % of Radioactivity in Microsomes, Rat: 37.3%
[4]
  % of Radioactivity in Microsomes, Monkey: 8.6%
[5]
  % of Radioactivity in Microsomes, Human: 4.0%

## Cc1nc(Nc2ncc(C(=O)Nc3c(C)cccc3Cl)s2)cc(N2CCN(CC(=O)O)CC2)n1 [M6 (IV), 2-(4-(6-(5-((2-Chloro-6-methylphenyl)carbamoyl)thiazol-2-ylamino)-2-methylpyrimidin-4-yl)piperazin-1-yl)acetic acid]
[1]
  % of Radioactivity in Hepatocytes, Monkey: 6.5%
[2]
  % of Radioactivity in Hepatocytes, Human: 9.2%
[3]
  % of Radioactivity in Microsomes, Rat: 0.7%
[4]
  % of Radioactivity in Microsomes, Monkey: 2.1%
[5]
  % of Radioactivity in Microsomes, Human: 1.6%

## Cc1nc(Nc2ncc(C(=O)Nc3c(C)cc(O)cc3Cl)s2)cc(N2CCN(CCO)CC2)n1 [M20 (V)]
[1]
  % of Radioactivity in Hepatocytes, Monkey: 4.5%
[2]
  % of Radioactivity in Hepatocytes, Human: 2.6%
[3]
  % of Radioactivity in Microsomes, Rat: 4.5%
[4]
  % of Radioactivity in Microsomes, Monkey: 30.0%
[5]
  % of Radioactivity in Microsomes, Human: 39.2%

## Cc1nc(Nc2ncc(C(=O)Nc3c(Cl)cccc3CO)s2)cc(N2CCN(CCO)CC2)n1 [M24 (VI), N-(2-chloro-6-(hydroxymethyl)phenyl)-2-(6-(4-(2-hydroxyethyl)piperazin-1-yl)-2-methylpyrimidin-4-ylamino)thiazole-5-carboxamide]
[1]
  % of Radioactivity in Hepatocytes, Monkey: 4.5%
[2]
  % of Radioactivity in Hepatocytes, Human: 2.6%
[3]
  % of Radioactivity in Microsomes, Rat: 4.5%
[4]
  % of Radioactivity in Microsomes, Monkey: 30.0%
[5]
  % of Radioactivity in Microsomes, Human: 39.2%

## Cc1nc(Nc2ncc(C(=O)Nc3c(C)cccc3Cl)s2)cc(N2CCN(CCO)CC2)n1 [Parent (I), N-(2-Chloro-6-methylphenyl)-2-[[6-[4-(2-hydroxyethyl)-1-piperazinyl]-2-methyl-4-pyrimidinyl]amino]-5-thiazolecarboxamide]
[1]
  % of Radioactivity in Hepatocytes, Monkey: 61.2%
[2]
  % of Radioactivity in Hepatocytes, Human: 77.7%
[3]
  % of Radioactivity in Microsomes, Rat: 54.2%
[4]
  % of Radioactivity in Microsomes, Monkey: 27.7%
[5]
  % of Radioactivity in Microsomes, Human: 35.5%
